From patent US8598221B2 (priority 2009, dated 2013)

System: cramps induced by acetic acid in the mouse
Assay: animal or person
Assay type: in vivo
Procedure: The analgesic effect of a nefopam-celecoxib combination was investigated in the model of abdominal cramps induced in the mouse by intraperitoneal administration of acetic acid. This model of pain induced by a chemical substance corresponds to inflammatory, visceral and acute pain.
Male CD1 mice (bred: C. River) weighing between 25 and 30 grams are used after an acclimatization for at least 7 days in the animal house (temp.=22±2; humidity=50±20%; food SAFE “A04”; nyctohemeral cycle: 12 h/12 h (light: 7 h/19 h−darkness: 19 h/7 h)). • 2. Protocol
On the day of the experiment, the non-fasting mice are weighed, marked and distributed at random in batches of 10. The acetic acid solution (Sigma) is prepared at 0.6%, or 60 mg of acetic acid in 10 ml of 0.9% NaCl.
At t=0, the mouse receives celecoxib by the oral route. At t=30 min, the mouse is administered nefopam or its liquid vehicle by the subcutaneous route. At t=60 min, the acetic acid is injected intraperitoneally (0.1 ml/10 g).
The number of abdominal cramps is counted from 5 to 20 minutes after injection of acetic acid. Frank abdominal cramps characterized by stretching of the hindpaws and/or hollowing of the flanks with twisting are regarded as positive. • 3. Products
Nefopam hydrochloride (Biocodex, batch 38) (called simply nefopam hereunder) is dissolved in distilled water or 0.9% NaCl. Celecoxib (Celebrex® capsules) is suspended in Tween 80 at 1%. • 4. Statistical Analysis
The test used is an analysis of variance for 3 or more groups and a Student t-test for 2 groups. Then the treated group or groups that differ from the control group are determined. […] At least 10 mice are used for each dose, and at least 3 doses are used for determining the dose-response curve. The dose that produces 50% of antinociceptive effect (50% decrease in number of cramps) is calculated by a standard linear regression analysis of the dose-response curve.
The interaction is evaluated by an isobolographic analysis of the co-administration of a combination of doses at fixed ratio according to Tallarida (2000) op. cit., Tallarida et al. (1989) Life Sci. 45:947-961 and Tallarida et al. (1997) Life Sci. 61:PL417-PL425. The isobologram is constructed by joining the ED50 of celecoxib with that of nefopam to obtain the line of additivity. The ED50 of the combination is determined by linear regression analysis of the dose-response curve, and it is compared by a t-test with a theoretical additive ED50 obtained using the PharmToolsPro software.

Cc1ccc(-c2cc(C(F)(F)F)nn2-c2ccc(S(N)(=O)=O)cc2)cc1 [Celecoxib, celecoxib]
ED50 (Mus musculus, read-out: ED50 (dose producing 50% decrease in number of cramps)): 40.2 ± 8.06 mg/kg
% variation of number of cramps (celecoxib 10 mg/kg oral): −9%
Number of cramps (mean ± SEM) (celecoxib 10 mg/kg oral): 28.2 ± 2.9
% variation of number of cramps (celecoxib 20 mg/kg oral): −42%
Number of cramps (mean ± SEM) (celecoxib 20 mg/kg oral): 18.1 ± 3.2
% variation of number of cramps (celecoxib 50 mg/kg oral): −39%
Number of cramps (mean ± SEM) (celecoxib 50 mg/kg oral): 18.9 ± 2.2
% variation of number of cramps (celecoxib 75 mg/kg oral): −72%
Number of cramps (mean ± SEM) (celecoxib 75 mg/kg oral): 8.6 ± 2.1
% variation of number of cramps (celecoxib 150 mg/kg oral): −90%
Number of cramps (mean ± SEM) (celecoxib 150 mg/kg oral): 3.2 ± 1.0
